Results published in paper PMC12257390, “Characterization of Clinically Evaluated Small-Molecule Inhibitors of PD-L1 for Immunotherapy” (ACS Medicinal Chemistry Letters, 2025).
Like-named read-outs stand apart in the source and are kept apart here.

Experiments:
PD-L1 [1] = target: T1, PD-L1 (Homo sapiens, UniProt Q9NZQ7); experiment: X-ray co-crystal structure ([…] Å), 1H NMR binding; IC50 from HTRF PD-1/PD-L1 disruption
T1 construct: gene CD274

PD-L1 [2] = target: T1, PD-L1; experiment: as above; remark: listed apart in the source

T1 sequence (Q9NZQ7 19-290): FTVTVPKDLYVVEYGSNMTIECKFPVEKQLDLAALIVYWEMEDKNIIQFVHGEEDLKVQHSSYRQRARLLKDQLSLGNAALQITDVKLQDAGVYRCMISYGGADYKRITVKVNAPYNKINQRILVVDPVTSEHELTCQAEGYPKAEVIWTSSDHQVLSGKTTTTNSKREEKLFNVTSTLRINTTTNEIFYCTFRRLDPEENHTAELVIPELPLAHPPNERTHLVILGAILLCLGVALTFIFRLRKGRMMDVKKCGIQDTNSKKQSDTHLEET

Row | IC50 (PD-L1 [1]) | IC50 (PD-L1 [2]) | Structure (SMILES)
1 | 2.59 ± 0.09 nM |  | Cc1c(Nc2nccc3cc(CN4CC[C@@H](O)C4)cnc23)cccc1-c1cccc(-c2nc3cc(CN4CC[C@@H](C(=O)O)C4)cc(C#N)c3o2)c1C [INCB086550]
2 |  | 6.88 ± 0.12 nM | Cc1c(C=Cc2cc(CNC(C)(CO)C(=O)O)ccc2C(F)(F)F)cccc1-c1ccc2c(c1)OCCO2 (centres unmarked) [MAX-10181]
